Entries after “also recorded” stand apart in the source; their conditions may differ.
Key:
NFKB [1] = assay: NFKB reporter activity in THP1-Dual monocytes co-cultured with treated A20 cells; format: cell-based, human; settings: for NFKB signaling/activity in THP1 monocytes: A20 cells treated 24 hours, then co-culture with THP1-Dual cells 24 hours, versus DMSO
Procedure: (§1) A20 B-cell leukemia cells were treated with either control (DMSO) or various doses of RSL3, for 24 hours prior to co-culture with THP1-Dual cells for an additional 24 hours. RSL3 was purchased from Selleckchem (Houston, Tex.) and dissolved in DMSO. Subsequently, the THP1 supernatants were assessed for NFKB or IRF reporter activity.
(§2) A20 cells were acquired from ATCC and THP1-Dual cells acquired from InvivoGen (San Diego, Calif.). Both cell types were cultured in 96-well plates for the duration of the assay. 50,000 A20 cells were plated 24 hours prior to dosing with RSL3, with a final DMSO concentration of 0.5%. 24 hours post-treatment, THP1-Dual cells (25,000 cells/well) were added to the A20 cells. 24 hours later, 30 μl of supernatant was mixed with either 200 μl QuantiBlue (InvivoGen, San Diego, Calif.) or 50 μl QuantiLuc and absorbance or luminescence was recorded on a Molecular Devices plate reader.
A20 lymphoma cells were treated with various doses (e.g. 0.002, 0.005, 0.014, 0.041, 0.123, 0.370, 1.111, 3.333 and 10 μM) of a GPX4 inhibitor (RSL3, ML162 or ML210) in the presence or absence of 1 μM Ferrostatin-1 for 24 hours. ML162 was purchased from Cayman Chemical Company Inc and resuspended in DMSO. ML210 was purchased from Sigma-Aldrich and resuspended in DMSO. A20 lymphoma cells were also treated with DMSO as a negative control. After treatment with DMSO or a GPX4 inhibitor for 24 hours, the A20 lymphoma cells were co-cultured with THP1-Dual cells for an additional 24 hours. Subsequently, the THP1 supernatant was assessed for NFKB reporter activity. A20 cells were acquired from ATCC and THP1-Dual cells were acquired from InvivoGen (San Diego, Calif.). Both cell types were cultured in 96-well plates for the duration of the assay.

A20 lymphoma cells = assay: Viability of A20 B-cell leukemia / lymphoma cells after treatment; format: cell-based; settings: for viability of A20 cells: various doses, 24 hours treatment
NFKB [2] = assay: NFKB reporter activity in THP1-Dual monocytes co-cultured with treated Caki-1 cells; format: cell-based, human; settings: for NFKB signaling/activity in THP1 monocytes: Caki-1 cells treated 24 hours, then co-culture with THP1-Dual cells 24 hours, versus DMSO
Procedure: as §1, with “Caki-1 renal cell carcinoma” for “A20 B-cell leukemia”, “Erastin,” for “RSL3,”, “Erastin” for “RSL3”
as §2, with “Caki-1” for “A20”, “7,500 Caki-1” for “50,000 A20”, “Erastin,” for “RSL3,”, “(InvivoGen)” for “(InvivoGen, San Diego, Calif.)”
as §1, with “Caki-1 renal cell carcinoma” for “A20 B-cell leukemia”, “Selleckchem” for “Selleckchem (Houston, Tex.)”
as §2, with “Caki-1” for “A20”, “7,500 Caki-1” for “50,000 A20”
Caki-1 renal carcinoma cells were treated with either control (DMSO) or various doses (e.g. 0.002, 0.005, 0.014, 0.041, 0.123, 0.370, 1.111, 3.333 and 10 μM) of a GPX4 inhibitor (RSL3 or ML162) in the presence or absence of 1 μM Ferrostatin for 24 hours prior to co-culture with THP1-Dual cells for an additional 24 hours. Subsequently, the THP1 supernatant was assessed for NFKB reporter activity. Caki-1 cells were acquired from ATCC and THP1-Dual cells acquired from InvivoGen (San Diego, Calif.). Both cell types were cultured in 96-well plates for the duration of the assay.

[3] = tested on: Caki-1 renal cell carcinoma cells; assay: Viability of Caki-1 renal cell carcinoma cells after treatment; format: cell-based; settings: for viability of Caki-1 cells: various doses, 24 hours treatment
Procedure: Caki-1 renal carcinoma cells were treated with either control (DMSO) or various doses (e.g. 0.002, 0.005, 0.014, 0.041, 0.123, 0.370, 1.111, 3.333 and 10 μM) of a GPX4 inhibitor (RSL3 or ML162) in the presence or absence of 1 μM Ferrostatin for 24 hours prior to co-culture with THP1-Dual cells for an additional 24 hours. […] Caki-1 cells were acquired from ATCC and THP1-Dual cells acquired from InvivoGen (San Diego, Calif.). Both cell types were cultured in 96-well plates for the duration of the assay.

NFKB [4] = assay: NFKB reporter activity in THP1-Dual monocytes co-cultured with treated HT1080 cells; format: cell-based, human; settings: HT1080 cells treated 24 hours, then co-culture with THP1-Dual cells 24 hours; versus DMSO
Procedure: HT1080 fibrosarcoma cells were treated with either control (DMSO) or various doses of Erastin, piperazine erastin (PE), or imidazole ketoerastin (IKE) for 24 hours prior to co-culture with THP1-Dual cells for an additional 24 hours. Erastin was purchased from Selleckchem (Houston, Tex.) and dissolved in DMSO. Subsequently, the THP1 supernatants were assessed for nuclear factor kappa-light-chain-enhancer of activated B cells (NFKB) or interferon regulatory factor (IRF) reporter activity.
HT1080 cells were acquired from ATCC and THP1-Dual cells were acquired from InvivoGen (San Diego, Calif.). THP1-Dual cells are human monocyte cells that induce reporter proteins upon activation of either NFKB or IRF pathways. Both cell types were cultured in 96-well plates for the duration of the assay. HT1080 cells were cultured in DMEM with 10% FBS, and THP1-Dual cells were cultured in RPMI with 10% FBS. 7,500 HT1080 cells were plated 24 hours prior to dosing with Erastin, PE, or IKE, with a final DMSO concentration of 0.5%. 24 hours post-treatment, THP1-Dual cells (25,000 cells/well) were added to the HT1080 cells. 24 hours later, 30 μl of supernatant was mixed with either 200 μl QuantiBlue (InvivoGen, San Diego, Calif.) (for NFKB reporter activity) or 50 μl QuantiLuc (for IRF reporter activity) and absorbance or luminescence was recorded on a Molecular Devices plate reader.
HT1080 fibrosarcoma cells were treated with various doses of Erastin (e.g. […], 0.16, 0.31, 0.63, 1.25, 2.5, 5, 10 or 20 μM) alone or in combination with a ferroptosis inhibitor (1 μM Ferrostatin-1, 1 μM Liproxstatin-1, 100 μM Trolox, 25 μM β-Mercaptoethanol or 100 μM Deferoxamine) for 24 hours prior to co-culture with THP1-Dual cells for an additional 24 hours. Ferrostatin-1 and Liproxstatin-1 were purchased from Selleckchem (Houston, Tex.) and dissolved in DMSO. Trolox was purchased from Cayman Chemical Company Inc and resuspended in DMSO. […] Subsequently, the THP1 supernatant was assessed for NFKB activity. […]

[5] = tested on: HT1080 fibrosarcoma cells; assay: Viability of HT1080 fibrosarcoma cells after treatment; format: cell-based; settings: various doses, 24 hours treatment
NFKB [6] = assay: NFKB reporter activity in THP1-Dual monocytes co-cultured with treated PANC1 cells; format: cell-based, human; settings: PANC1 cells treated 24 hours, then co-culture with THP1-Dual cells 24 hours; versus DMSO
Procedure: as §1, with “PANC1 pancreatic cancer” for “A20 B-cell leukemia”, “Erastin,” for “RSL3,”, “Erastin” for “RSL3”
as §2, with “PANC1 cells were” for “A20 cells were”, “THP1-Dual cells were acquired from” for “THP1-Dual cells acquired from”, “the assay. 7,500 PANC-1 cells were” for “the assay. 50,000 A20 cells were”, “dosing with Erastin, with a” for “dosing with RSL3, with a”, “to the PANC-1 cells. 24” for “to the A20 cells. 24”

[7] = tested on: cells overexpressing oncogenic HRAS; settings: engineered human fibroblast cell lines; Dolma et al., 2003; cited from earlier work
[8] = tested on: PANC1 pancreatic cancer cells; assay: Viability of PANC1 pancreatic cancer cells after treatment; format: cell-based; settings: various doses, 24 hours treatment

SMILES	NFKB signaling/activity in THP1 monocytes (NFKB [1])	viability of A20 cells (A20 lymphoma cells)	NFKB signaling/activity in THP1 monocytes (NFKB [2])	viability of Caki-1 cells [3]	NFKB signaling/activity in THP1 monocytes (NFKB [4])	viability of HT1080 cells [5]	further results
CCOC(=O)c1ccc(NC2CCCCC2)c(N)c1 [Ferrostatin-1]	–	–	–	–	–	–	effect on GPX4 inhibitor-increased NFKB activity in THP1 cells (NFKB [1]; A20 cells, 1 μM Ferrostatin-1 together with RSL3, ML162 or ML210, then THP1-Dual co-culture 24 hours): attenuated; effect on GPX4 inhibitor-decreased viability of A20 lymphoma cells (A20 lymphoma cells; 1 μM Ferrostatin-1 together with RSL3, ML162 or ML210, 24 hours): attenuated; effect on GPX4 inhibitor-increased NFKB activity in THP1 cells (NFKB [2]; Caki-1 cells, 1 μM Ferrostatin-1 together with RSL3 or ML162, then THP1-Dual co-culture 24 hours): attenuated; effect on GPX4 inhibitor-decreased viability of Caki-1 renal carcinoma cells ([3]; 1 μM Ferrostatin-1 together with RSL3 or ML162, 24 hours): attenuated
COc1ccc(N(C(=O)CCl)C(C(=O)NCCc2ccccc2)c2cccs2)cc1Cl (stereo not drawn) [ML162]	increased NFKB activity in THP1 cells in a dose dependent manner	decreased viability of the cells in a dose dependent manner	increased NFKB activity in THP1 cells in a dose dependent manner	decreased viability of the cells in a dose dependent manner	–	–	–
CC(C)Oc1ccc(CN2CCNCC2)cc1-n1c(CN2CCN(C(=O)COc3ccc(Cl)cc3)CC2)nc2ccccc2c1=O [PE, piperazine erastin]	–	–	–	–	elicited NFKB signaling	negatively affected the viability	–
CC(C)Oc1ccc(C(=O)Cn2ccnc2)cc1-n1c(CN2CCN(C(=O)COc3ccc(Cl)cc3)CC2)nc2ccccc2c1=O [IKE, imidazole ketoerastin]	–	–	–	–	elicited NFKB signaling	negatively affected the viability	–
Cc1onc(C(=O)N2CCN(C(c3ccc(Cl)cc3)c3ccc(Cl)cc3)CC2)c1[N+](=O)[O-] [ML210]	increased NFKB activity in THP1 cells in a dose dependent manner	decreased viability of the cells in a dose dependent manner	–	–	–	–	–
CCOc1ccccc1-n1c(C(C)N2CCN(C(=O)COc3ccc(Cl)cc3)CC2)nc2ccccc2c1=O (stereo not drawn) [Erastin, erastin]	–	–	elicited NFKB signaling	negatively affected the viability	elicited NFKB signaling; also recorded: increased NFKB activity in THP1 cells in a dose dependent manner	negatively affected the viability; also recorded: decreased viability of the cells in a dose dependent manner	NFKB signaling in THP1 monocytes (NFKB [6]): elicited NFKB signaling; lethality in cells overexpressing oncogenic HRAS [7]: induce preferential lethality; viability of PANC1 cells [8]: negatively affected the viability
